Measurements as given in BigSolDB 2.1.

CN(C/C=C/C#CC(C)(C)C)Cc1cccc2ccccc12.Cl
solubility (mole fraction)
Settings | in ethanol | in ethyl acetate | in methanol | in n-propanol
278.15 K | 0.0187 | 0.0022 | 0.0398 | 0.0187
280.65 K | 0.0197 | 0.00255 | 0.0411 | 0.0193
283.15 K | 0.0207 | 0.00304 | 0.0424 | 0.02
285.65 K | 0.0217 | 0.0036 | 0.0439 | 0.0206
288.15 K | 0.0229 | 0.00417 | 0.0453 | 0.0214
290.65 K | 0.0241 | 0.00482 | 0.047 | 0.0221
293.15 K | 0.0254 | 0.00557 | 0.0486 | 0.0228
295.65 K | 0.0266 | 0.00626 | 0.0502 | 0.0237
298.15 K | 0.0279 | 0.00715 | 0.0518 | 0.0245
300.65 K | 0.0293 | 0.00821 | 0.0536 | 0.0254
303.15 K | 0.0309 | 0.00919 | 0.0554 | 0.0262
305.65 K | 0.0326 | 0.0105 | 0.0572 | 0.0271
308.15 K | 0.0342 | 0.0119 | 0.059 | 0.028
310.65 K | 0.036 | 0.0133 | 0.061 | 0.0291
313.15 K | 0.0379 | 0.015 | 0.063 | 0.0301
